Reference: publication PMC7696255, “In-Silico Identified New Natural Sortase A Inhibitors Disrupt S. aureus Biofilm Formation” (International Journal of Molecular Sciences, 2020)
Converted amounts (≈) assume the structure as drawn. Like-named read-outs stand apart in the source and are kept apart here.

Tests used:
S. aureus ATCC 25923 = assay: S. aureus whole cell assay (MIC, microbroth dilution); format: cell-based, Staphylococcus aureus; settings: for MIC: Staphylococcus aureus, ATCC25923, 24 h
Experimental: (§1) Minimum inhibitory concentration (MIC) tests were performed according to procedures of the Clinical Laboratory Standards Institute (CLSI) with minor changes using the microbroth dilution technique in a 384-well setup. Inoculum of each S. aureus strain was prepared by suspending segregated colonies in sterile saline to a 0.5 McFarland standard. An inoculum of 2–8 × 10^5 CFU/mL was incubated with the compounds for 24 h at 37 °C. Gentamicin (data not shown) was incubated in the same manner as the test compounds and served as a positive control. The effect of the compounds on bacterial growth was calculated by quantifying the optical density at 600 nm on a microplate reader (Tecan, Infinite M1000, Salzburg, Austria). Dilutions of the inoculum were cultivated on agar to verify the validity of the inoculum seeding density and absence of contamination. All tests were executed in triplicate during two separate experiments.

S. aureus Newman = assay: as above; format: cell-based, Staphylococcus aureus; settings: for MIC: Staphylococcus aureus, NEWMAN
Experimental: as §1

A549 cells = assay: Mammalian cell cytotoxicity assay (PrestoBlue); format: cell-based, human; settings: read-out: Mammalian cell lines IC50
Experimental: (§2) A549 and HepG2 cells were seeded at 1500 and 2500 cells per well, respectively, in 384-well microplates and incubated at 37 °C in the presence of 5% CO2. The next day, cells were treated with compounds then incubated for an additional 72 h. To assess the cytotoxic effect of the compounds PrestoBlue cell viability reagent (Life Technologies, Carlsbad, CA, USA) was used. After the 72 h incubation with compounds, the 384-well assay plates were incubated with this viability indicator dye for 2 h (A549) and 4 h (HepG2) before fluorescence reading at Ex/Em = 560 nm/590 nm on the Tecan Infinite M1000 Pro reader. Puromycin (data not shown) was used as the positive control against both cell lines. All tests were executed in triplicate on two separate experiments.

HepG2 cells = assay: Mammalian cell cytotoxicity assay (PrestoBlue); format: cell-based, human; settings: read-out: Mammalian cell lines IC50
Experimental: as §2

S. aureus sortase A [1] = biological target: T1, S. aureus sortase A (Staphylococcus aureus, UniProt Q2FV99); assay: SrtA enzyme inhibition FRET assay, 5-FAM/QXL 520 substrate; format: biochemical
T1 construct: purchased AnaSpec AS-72229
T1 sequence (Q2FV99 whole entry): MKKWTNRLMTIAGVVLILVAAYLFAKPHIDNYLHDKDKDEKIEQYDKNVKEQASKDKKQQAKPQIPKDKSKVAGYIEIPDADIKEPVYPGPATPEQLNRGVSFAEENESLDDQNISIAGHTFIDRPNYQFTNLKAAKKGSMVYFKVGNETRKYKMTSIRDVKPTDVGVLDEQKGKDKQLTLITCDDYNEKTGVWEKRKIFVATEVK
Experimental: (§3) The enzymatic reactions were carried out in black, low-binding polystyrene 384 well plates (Greiner Bio-One). […] SrtA was pre-incubated in the reaction buffer with compounds for 1 h at room temperature prior to the addition of the FRET substrate. Assays were performed in 50 µL reactions with 50 ng of S. aureus sortase A and 25 µM of DABCYL-LPETG-EDANS substrate or 1 µM of 5-FAM/QXL^TM 520 substrate. The inhibitory activity of the compounds was determined by monitoring the rise in fluorescence intensity over 24 h at Ex/Em = 336 nm/490 nm for the DABCYL/EDANS substrate and Ex/Em = 490 nm/520 nm for the 5-FAM/QXL 520 substrate on a Tecan Infinite M1000 Pro reader.
(§4) Raw fluorescence data were corrected for autofluorescence before computing percentage inhibition values. These percentage inhibition values were plotted against compound concentration using GraphPad Prism version 8.0 by nonlinear regression analysis using least squares fit method for IC50 determination. Testing was performed twice to ensure reproducibility of results.

S. aureus sortase A [2] = biological target: T1, S. aureus sortase A; assay: SrtA enzyme inhibition FRET assay, DABCYL-LPETG-EDANS substrate; format: biochemical
Experimental: as §3, §4

[3] = tested on: S. aureus Newman biofilm formation; assay: Biofilm inhibitory assay (crystal violet), biofilm formation; format: cell-based, Staphylococcus aureus; settings: CV assay; for IC50: biofilm formation, read-out: Biofilm Inhibition IC50
Experimental: (§5) The effectiveness of SrtA inhibitors in reducing biofilm formation and growth was assessed using the crystal violet (CV) biofilm assay with the following modifications. TSB with 2% glucose (TSB without glucose for E. coli) was inoculated with 10^5 CFU/mL of S. aureus and E. coli overnight cultures. A total of 90µl of this cell suspension was then dispensed into 96-well microtiter plates containing 10 µL of different concentrations of the SrtA inhibitors. After 24 h growth at 37 °C the plates were washed with PBS to remove unbound cells and heat fixed at 60 °C for 30 min. Next, the wells were stained with 0.1% crystal violet solution for 15 min at room temperature. At the completion of the incubation plates were washed 3 times with PBS and dried. Then the crystal violet dye from the biofilm was solubilized with 200 µL of DMSO. A total of 100 µL of this solution was then moved to a new microtiter plate for absorbance measurement at 595 nm. For pre-formed biofilm assay, the plates were prepared and incubated as mentioned earlier, without SrtA inhibitors. After 24 h incubation, the culture supernatant was removed gently and biofilm carefully washed with sterile PBS. Next, 10 µL of different concentrations of SrtA inhibitors with 90 µL of TSB with 2% glucose were added carefully into the wells and incubated at 37 °C for 24 h. The amount of crystal violet staining of biofilm was measured as described above. The results were reported as percent inhibition normalized to the wild type control. Two independent experiments were performed in triplicate to ensure reproducibility.

[4] = tested on: S. aureus ATCC 33591 (MRSA) biofilm formation; assay: as above; format: cell-based, Staphylococcus aureus
Experimental: as §5

[5] = tested on: adherence of S. aureus Newman to fibrinogen; assay: Fibrinogen binding assay; format: cell-based, Staphylococcus aureus
Experimental: Fibrinogen binding assay was completed as described but with slight revision. A flat-bottom 96-well plate was covered with fibrinogen protein by adding 50 µL of 20 µg/mL of fibrinogen protein from bovine plasma diluted in saline and incubated at 4 °C for 24 h. The coated plates were gently rinsed twice with PBS and blocked for 60 min with 4% bovine serum albumin (BSA). The plates were then washed 3 times with PBS. For this assay, S. aureus Newman strain was cultivated in TSB at 37 °C to exponential phase (OD600 = 0.5) and then the bacterial culture was incubated with various concentrations of test compound or control for 2.5 h. Then the cells were pelleted by centrifugation at 10,000× g for 10 min, the supernatants were removed and the cell pellets stored at −20 °C. The following day, cell pellets were suspended in PBS and dispersed in 100 μL aliquots to distinct wells of fibrinogen-coated 96-well plates. After 2 h of growth at 37 °C, the bacterial supernatant was discarded and the wells were rinsed gently with 150 µl PBS. Then the bacterial cells were fixed with 2% (v/v) glutaraldehyde and incubated for 30 min at 25 °C. After a wash with PBS, bound cells were stained with 0.1% crystal violet dye for 15 min. Plates were rinsed twice again with PBS, enclosed with aluminum foil, then stored at room temperature to dry overnight. On the next day absorbance was measured at 570 nm. The results were described as the percent of adhesion inhibition normalized to the wild type control. Two independent experiments were performed in triplicate to ensure reproducibility.

[6] = tested on: E. coli ATCC 25922 biofilm formation; assay: Biofilm inhibitory assay (crystal violet), biofilm formation; format: cell-based; settings: in words; CV assay
Experimental: as §5, with “Next, 10 µL of different concentrations of SrtA inhibitors with 90 µL of TSB with 2% glucose were added carefully into the wells and incubated at 37 °C for 24 h.” left out, “The results were reported as percent inhibition normalized to the wild type control. Two independent experiments were performed in triplicate to ensure reproducibility.” left out

[7] = tested on: S. aureus ATCC 33591 (MRSA) pre-formed biofilms; assay: Biofilm inhibitory assay (crystal violet), pre-formed biofilms; format: cell-based, Staphylococcus aureus; settings: in words
Experimental: as §5

[8] = Sortase A IC50, 5-FAM/QXL substrate, 10 min
[9] = Sortase A IC50, DABCYL-LPETG-EDANS substrate, 4 h

SMILES	MIC (S. aureus ATCC 25923) [µM]	MIC (S. aureus Newman; 24 h) [µM]	IC50 (A549 cells; Homo sapiens, A549, 72 h) [µM]	IC50 (HepG2 cells; Homo sapiens, HepG2, 72 h) [µM]	IC50 (S. aureus sortase A [1]; [8]) [µM]	IC50 (S. aureus sortase A [2]; [9]) [µM]	IC50 (S. aureus sortase A [1]) [µM]	IC50 (S. aureus sortase A [2]) [µM]	further results
Cc1cc(O)c2c(c1)C(=O)c1c(c(O)cc(O)c1-c1c(O)cc(O)c3c1C(=O)c1cc(C)cc(O)c1C3=O)C2=O [Compound N1287, Skyrin]	7.2 ± 0.1 (≈ 3.88 µg/mL)	7.3 ± 0.8 (≈ 3.93 µg/mL)	64.7 ± 6.2	63.9 ± 5.1	31 ± 0.3	24 ± 2.1	–	–	S. aureus MIC (S. aureus ATCC 25923; 24 h): 5 to 8 µM; S. aureus MIC (S. aureus Newman; Newman, 24 h): 5 to 8 µM; IC50 (A549 cells; 72 h): 60 to 90 µM; IC50 (HepG2 cells; 72 h): 60 to 90 µM; IC50 (S. aureus sortase A [2]; SrtA enzymatic activity IC50, text summary, Figure 2A,B, both substrates): < 50 µM; concentration giving >90% inhibition of biofilm formation [3]: 23 µM; IC50 ([3]; Staphylococcus aureus, NEWMAN): 12.2 ± 4.1 µM; IC50 [3]: 12 µM; IC50 ([4]; Staphylococcus aureus, S. aureus ATCC 33591 (MRSA), biofilm formation, read-out: Biofilm Inhibition IC50): 41.9 µM; inhibitory activity on MRSA biofilm formation ([4]; in words): exhibited inhibitory activity; IC50 ([5]; Staphylococcus aureus, NEWMAN, read-out: Fibrinogen adherence Inhibition IC50): 9.5 ± 0.5 µM; concentration giving ≥90% prevention of S. aureus Newman adherence to fibrinogen ([5]; compared to untreated wildtype strain): 46 µM; effect on E. coli ATCC 25922 biofilm formation [6]: did not show any effect; inhibitory activity on MRSA pre-formed biofilms [7]: not against pre-formed biofilms
O=C(/C=C/c1ccc(O)c(O)c1)O[C@@H]1C[C@](O)(C(=O)O)C[C@@H](O)[C@H]1O [Chlorogenic acid, reference compound]	> 200	> 200	> 200	> 200	144 ± 16	88 ± 5.6	–	–	growth inhibition of S. aureus (S. aureus Newman; at 200 µM, strain not given): did not inhibit the growth; IC50 (S. aureus sortase A [1]; Sortase A IC50, 5-FAM/QXL substrate, after 24 h): 103 ± 31 µM
CC1=CC2c3c(cc4oc5cc(C)cc(O)c5c4c3C)OC3(O)C(=O)c4oc5cc(C)cc(O)c5c4C(C)(C1)C23 (stereo not drawn) [Compound N2450, Asticolorin B]	–	–	–	–	–	–	–	–	IC50 (S. aureus sortase A [1]; read-out: Sortase A IC50, 5-FAM/QXL substrate, 10 min): > 200 µM; IC50 (S. aureus sortase A [2]; read-out: Sortase A IC50, DABCYL-LPETG-EDANS substrate, 4 h): > 200 µM
COc1ccc(CC(N)C(=O)NC2C(C(=O)O)OC(n3cnc4c(N)ncnc43)C2O)cc1 (stereo not drawn) [Compound N2238, Chryscandin]	–	–	–	–	–	–	> 200	> 200	–
CC(/C=C/[C@@]1(C)[C@H](C)CCC(=O)[C@@H]1C)=C\Cc1c(O)c(Cl)c(C)c(C=O)c1O [Compound N1321, Ascochlorin]	–	–	–	–	> 200	> 200	–	–	–
CC(C)(O)[C@H]1O[C@H]2CC[C@@]3(C)[C@@](O)(CC[C@H]4Cc5c([nH]c6ccccc56)[C@@]43C)C2=CC1=O [Compound N563, Paxilline]	–	–	–	–	–	–	> 200	> 200	–
